Measured values taken from the NIST ThermoML archive (doi:10.1021/je050010l).
± gives the expanded uncertainty stated by the source.

Legend:
[1] = refractive index (Na D-line) (dimensionless); settings: 101.33 kPa, Liquid, Standard Abbe refractometry
[2] = 100.8 kPa, Liquid; for viscosity: Capillary tube (Ostwald / Ubbelohde) method
[3] = xn = mol fraction of the nth substance listed; settings: 100.8 kPa, Liquid; for viscosity: Capillary tube (Ostwald / Ubbelohde) method
[4] = refractive index (Na D-line) (dimensionless); xn = mol fraction of the nth substance listed; settings: 100.8 kPa, Liquid, Standard Abbe refractometry

CC(C)CC(C)(C)C [2,2,4-trimethylpentane]
Settings	mass density, 288.15 K [kg/m3]	mass density, 298.15 K [kg/m3]	mass density, 308.15 K [kg/m3]	refractive index, 288.15 K	refractive index, 298.15 K	refractive index, 308.15 K	viscosity, 288.15 K [mPa·s]	viscosity, 298.15 K [mPa·s]	viscosity, 308.15 K [mPa·s]
[1]	–	–	–	1.39404 ± 0.00031	1.389 ± 0.00031	1.38395 ± 0.00031	–	–	–
[2]	695.95 ± 0.31	687.74 ± 0.31	679.41 ± 0.32	–	–	–	0.537 ± 0.005	0.48 ± 0.004	0.432 ± 0.004

CC(C)=O [acetone]
Settings	mass density, 288.15 K [kg/m3]	mass density, 298.15 K [kg/m3]	mass density, 308.15 K [kg/m3]	refractive index, 288.15 K	refractive index, 298.15 K	refractive index, 308.15 K	viscosity, 288.15 K [mPa·s]	viscosity, 298.15 K [mPa·s]	viscosity, 308.15 K [mPa·s]
[1]	–	–	–	1.36152 ± 0.00031	1.35605 ± 0.00031	1.35057 ± 0.00031	–	–	–
[2]	796.87 ± 0.22	785.47 ± 0.23	773.91 ± 0.24	–	–	–	0.334 ± 0.003	0.302 ± 0.003	0.274 ± 0.003

CC(C)=O [acetone] + CC(C)CC(C)(C)C
x1 = 1
Settings	mass density, 288.15 K [kg/m3]	mass density, 298.15 K [kg/m3]	mass density, 308.15 K [kg/m3]	refractive index, 288.15 K	refractive index, 298.15 K	refractive index, 308.15 K	viscosity, 288.15 K [mPa·s]	viscosity, 298.15 K [mPa·s]	viscosity, 308.15 K [mPa·s]
[3]	796.87 ± 0.22	785.47 ± 0.23	773.91 ± 0.24	–	–	–	0.334 ± 0.003	0.302 ± 0.003	0.274 ± 0.003
[4]	–	–	–	1.36152 ± 0.00031	1.35605 ± 0.00031	1.35057 ± 0.00031	–	–	–

CCO [ethanol]
Settings	mass density, 288.15 K [kg/m3]	mass density, 298.15 K [kg/m3]	mass density, 308.15 K [kg/m3]	refractive index, 288.15 K	refractive index, 298.15 K	refractive index, 308.15 K	viscosity, 288.15 K [mPa·s]	viscosity, 298.15 K [mPa·s]	viscosity, 308.15 K [mPa·s]
[1]	–	–	–	1.36342 ± 0.00031	1.35924 ± 0.00031	1.35502 ± 0.00031	–	–	–
[2]	793.74 ± 0.23	785.17 ± 0.23	776.49 ± 0.24	–	–	–	1.309 ± 0.011	1.084 ± 0.009	0.905 ± 0.008

CCO [ethanol] + CC(C)=O
x2 = 0
Settings	mass density, 288.15 K [kg/m3]	mass density, 298.15 K [kg/m3]	mass density, 308.15 K [kg/m3]	refractive index, 288.15 K	refractive index, 298.15 K	refractive index, 308.15 K	viscosity, 288.15 K [mPa·s]	viscosity, 298.15 K [mPa·s]	viscosity, 308.15 K [mPa·s]
[3]	793.74 ± 0.23	785.17 ± 0.23	776.49 ± 0.24	–	–	–	1.309 ± 0.011	1.084 ± 0.009	0.905 ± 0.008
[4]	–	–	–	1.36342 ± 0.00031	1.35924 ± 0.00031	1.35502 ± 0.00031	–	–	–

CCO [ethanol] + CC(C)CC(C)(C)C
x1 = 1
Settings	mass density, 288.15 K [kg/m3]	mass density, 298.15 K [kg/m3]	mass density, 308.15 K [kg/m3]	refractive index, 288.15 K	refractive index, 298.15 K	refractive index, 308.15 K	viscosity, 288.15 K [mPa·s]	viscosity, 298.15 K [mPa·s]	viscosity, 308.15 K [mPa·s]
[3]	793.74 ± 0.23	785.17 ± 0.23	776.49 ± 0.24	–	–	–	1.309 ± 0.011	1.084 ± 0.009	0.905 ± 0.008
[4]	–	–	–	1.36342 ± 0.00031	1.35924 ± 0.00031	1.35502 ± 0.00031	–	–	–
